{"source": "patent EP2933270B1", "about": "“ARTEANNUIN CYCLODEXTRIN CONJUGATE AND PREPARING METHOD THEREOF” (KPC Pharmaceuticals, Inc., priority 2012, dated 2014)", "key": {"HCT116": {"tested_on": "HCT116", "assay": "MTT assay, growth inhibition of human rectal cancer cells", "format": "cell-based", "procedure": "(§1) For example, 180 µl suspension of human rectal cancer cells HCT116, Lovo, SW480 and HT29 at a concentration of 4×10^4/mL is added to 96-well culture plate, and pre-cultured under the conditions of 5% CO2, 37°C and saturated moisture for 24h. After 150 µl medium is replaced, 20 µl medium containing molecular assembly at different concentrations is added, and cultured for another 48 h, with the medium free of a sample as a negative control, and a medium containing camptothecin, oxaliplatin and fluorouracil at different concentrations as a positive control. MTT assay is used to determine the OD value, and to calculate the growth inhibition rate. The inhibition of compounds at high, medium and low concentrations on the tumor cell proliferation is observed. All the experiments above are performed in triplet. Results for in vitro experiment of the arteannuin-cyclodextrin conjugate with respect to human rectum and caecum cancer cells are shown in table 1. Table 1 IC50 value (µM) for certain arteannuin compounds in several rectum cancer cells"}, "HT29": {"tested_on": "HT29", "assay": "MTT assay, growth inhibition of human rectal cancer cells", "format": "cell-based", "settings": "48 h", "procedure": "as §1"}, "Lovo": {"tested_on": "Lovo", "assay": "MTT assay, growth inhibition of human rectal cancer cells", "format": "cell-based", "settings": "48 h", "procedure": "as §1"}, "SW480": {"tested_on": "SW480", "assay": "MTT assay, growth inhibition of human rectal cancer cells", "format": "cell-based", "settings": "48 h", "procedure": "as §1"}, "Solubility in water": {"assay": "Solubility in water", "text": "The arteannuin-cyclodextrin conjugate according to the present invention uses a cyclodextrin as a carrier, and a molecule of an arteannuin compound is connected, via an amide bond formed between the carboxyl group thereof and any amine group of the cyclodextrin modified by an amine group, to the cyclodextrin."}, "Hep2 hepatoma": {"tested_on": "Hep2 hepatoma", "settings": "mice, intraperitoneal injection, 60 mg/kg; cited from earlier work"}, "hepatocarcinoma H22": {"tested_on": "hepatocarcinoma H22", "settings": "mice, 300 mg/kg by gavage; cited from earlier work"}, "[1]": {"settings": "Homo sapiens, HT-29, HT 90 [sic] cells (method: HT29)"}, "[2]": {"settings": "HT 90 [sic] cells (method: HT29)"}, "[3]": {"settings": "isolated product of the example"}}, "note": "Where two headings read alike, the source gives them in different places.", "data": [{"molecule": "C[C@H]1[C@@H](O)O[C@@H]2O[C@@]3(C)CC[C@H]4[C@H](C)CC[C@@H]1[C@@]24OO3", "note": "[dihydroarteannuin]", "values": [{"measurement": "IC50", "setting": "HCT116; Homo sapiens, HCT-116, 48 h", "value": 1.76, "unit": "µM"}, {"measurement": "IC50", "setting": "HT29; [1]", "value": 21.1, "unit": "µM"}, {"measurement": "IC50", "setting": "Lovo; Homo sapiens", "value": 2.11, "unit": "µM"}, {"measurement": "IC50", "setting": "SW480; Homo sapiens", "value": 14.1, "unit": "µM"}, {"measurement": "solubility in water", "setting": "Solubility in water", "value": "almost insoluble in water"}]}, {"molecule": "C[C@@H]1CC[C@H]2[C@@H](C)C(=O)O[C@@H]3O[C@@]4(C)CC[C@@H]1[C@]32OO4", "note": "[arteannuin]", "values": [{"measurement": "solubility in water", "setting": "Solubility in water; in water", "value": "almost insoluble in water"}]}, {"molecule": "O=C1[O][Pt]2([NH][C@@H]3CCCC[C@H]3[NH]2)[O]C1=O", "note": "[oxaliplatin]", "values": [{"measurement": "IC50", "setting": "HCT116; 48 h", "value": 0.76, "unit": "µM"}, {"measurement": "IC50", "setting": "HT29; [2]", "value": 9.7, "unit": "µM"}, {"measurement": "IC50", "setting": "Lovo", "value": 1.51, "unit": "µM"}, {"measurement": "IC50", "setting": "SW480", "value": 30.1, "unit": "µM"}]}, {"molecule": "conjugate of mono-[6-(ethanediamine)-6-deoxy]-β-cyclodextrin and the compound in which C-12 of the arteannuin was connected with a phenoxy group [Example 5]", "values": [{"measurement": "solubility", "setting": "Solubility in water", "value": 68, "unit": "mg/mL"}]}, {"molecule": "conjugate of mono-[6-(monoamine)-6-deoxy]-β-cyclodextrin and the compound in which C-12 of the arteannuin was connected with a phenoxy group [Example 6]", "values": [{"measurement": "solubility", "setting": "Solubility in water; [3]", "value": 54, "unit": "mg/mL"}]}, {"molecule": "C[C@H]1[C@H](OC(=O)CCC(=O)O)O[C@@H]2O[C@@]3(C)CC[C@H]4[C@H](C)CC[C@@H]1[C@@]24OO3", "note": "[artesunate]", "values": [{"measurement": "IC50", "setting": "HCT116; Homo sapiens, HCT-116, 48 h", "value": 1.04, "unit": "µM"}, {"measurement": "IC50", "setting": "HT29; [1]", "value": 9.11, "unit": "µM"}, {"measurement": "IC50", "setting": "Lovo; Homo sapiens", "value": 2.6, "unit": "µM"}, {"measurement": "IC50", "setting": "SW480; Homo sapiens", "value": 1.82, "unit": "µM"}, {"measurement": "solubility in water", "setting": "Solubility in water; in water", "value": "almost insoluble in water"}, {"measurement": "anti-tumor rate", "setting": "Hep2 hepatoma", "value": 80.4, "unit": "%"}, {"measurement": "anti-tumor rate", "setting": "hepatocarcinoma H22", "value": "≥ 40", "unit": "%"}]}, {"molecule": "O=c1[nH]cc(F)c(=O)[nH]1", "note": "[fluorouracil]", "values": [{"measurement": "IC50", "setting": "HCT116; Homo sapiens, HCT-116, 48 h", "value": 5.4, "unit": "µM"}, {"measurement": "IC50", "setting": "HT29; [1]", "value": 38.5, "unit": "µM"}, {"measurement": "IC50", "setting": "Lovo; Homo sapiens", "value": 23, "unit": "µM"}, {"measurement": "IC50", "setting": "SW480; Homo sapiens", "value": 30.8, "unit": "µM"}]}, {"molecule": "mono-[6-(ethanediamine)-6-deoxy]-β-cyclodextrin-artesunate conjugate [Example 1]", "values": [{"measurement": "IC50", "setting": "HCT116; 48 h", "value": 0.58, "unit": "µM"}, {"measurement": "IC50", "setting": "HT29; [2]", "value": 5.18, "unit": "µM"}, {"measurement": "IC50", "setting": "Lovo", "value": 1.62, "unit": "µM"}, {"measurement": "IC50", "setting": "SW480", "value": 3.89, "unit": "µM"}, {"measurement": "solubility", "setting": "Solubility in water; [3]", "value": 68, "unit": "mg/mL"}]}]}
